molecular target: T1, GLUT1 (Homo sapiens, UniProt P11166); assay: Indirect measurement of GLUT1 activity by quantification of intracellular ATP levels (glucose induced ATP increase); type: cell-based; set-up: endogenous in cells; host or cells: DLD1 or CHO-K1; settings: read-out: IC50 regarding glucose induced ATP increase (GLUT1 inhibition)
T1 sequence (P11166 1-492): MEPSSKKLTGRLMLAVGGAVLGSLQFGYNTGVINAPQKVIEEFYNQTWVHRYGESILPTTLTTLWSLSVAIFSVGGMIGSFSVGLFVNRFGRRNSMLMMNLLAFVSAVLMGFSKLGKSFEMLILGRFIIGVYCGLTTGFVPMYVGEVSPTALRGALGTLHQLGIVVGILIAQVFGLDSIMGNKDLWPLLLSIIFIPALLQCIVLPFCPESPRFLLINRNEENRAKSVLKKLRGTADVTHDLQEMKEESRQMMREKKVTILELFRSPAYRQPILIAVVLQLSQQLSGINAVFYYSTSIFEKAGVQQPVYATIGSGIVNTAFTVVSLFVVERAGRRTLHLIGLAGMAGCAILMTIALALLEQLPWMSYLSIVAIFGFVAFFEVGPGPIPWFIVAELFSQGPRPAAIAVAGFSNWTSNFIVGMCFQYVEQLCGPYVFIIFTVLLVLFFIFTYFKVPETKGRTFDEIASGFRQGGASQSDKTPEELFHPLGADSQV
In short: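 DLD1 or CHO-K1 cells were starved overnight in glucose-free medium with 1% FCS, then combined with an oxidative phosphorylation inhibitor. GLUT1 activity was read as glucose-induced ATP increase, GLUT2 as fructose-induced. Intracellular ATP was quantified by CellTiter-Glo luminescence.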

Compound	IC50
Cc1c(NC(=O)c2cc(C(N)=O)nc3ccc(Br)cc23)c(C(F)(F)F)nn1Cc1ccc(C#N)cc1F [Example 305, 6-bromo-N^4-[1-(4-cyano-2-fluorobenzyl)-5-methyl-3-(trifluoromethyl)-1H-pyrazol-4-yl]quinoline-2,4-dicarboxamide]	1.4 nM
Cc1nn(Cc2c(F)cc(F)cc2F)c(C)c1NC(=O)c1cc(C(F)(F)F)nc2ccc(Br)cc12 [Example 49, 6-bromo-N-[3,5-dimethyl-1-(2,4,6-trifluorobenzyl)-1H-pyrazol-4-yl]-2-(trifluoromethyl)quinoline-4-carboxamide]	50 nM
Cc1c(NC(=O)c2cc(C(N)=O)nc3cccc(F)c23)c(C(F)(F)F)nn1Cc1ncc(C#N)cn1 [Example 424, N^4-{1-[(5-cyanopyrimidin-2-yl)methyl]-5-methyl-3-(trifluoromethyl)-1H-pyrazol-4-yl}-5-fluoroquinoline-2,4-dicarboxamide]	6.7 nM
COCCNC(=O)c1ccc(Cn2nc(C(F)(F)F)c(NC(=O)c3cc(C(N)=O)nc4cc(F)ccc34)c2C)cc1 [Example 373, 7-fluoro-N^4-[1-{4-[(2-methoxyethyl)carbamoyl]benzyl}-5-methyl-3-(trifluoromethyl)-1H-pyrazol-4-yl]quinoline-2,4-dicarboxamide]	17.5 nM
CC(C)c1nn(Cc2ccc(F)cc2)c(C(C)C)c1NC(=O)c1cc(C(F)(F)F)nc2cc(F)c(F)cc12 [Example 1357]	> 13000 nM
Cc1nn(Cc2cnn(C)c2C)c(C)c1NC(=O)c1cc(C(F)(F)F)nc2ccc(Br)cc12 [Example 1342]	26.5 nM
Cc1c(NC(=O)c2cc(C(N)=O)nc3ccc(N4CCN(C)CC4)cc23)c(C(F)(F)F)nn1Cc1ccc(C#N)cc1 [Example 1394]	127 nM
COc1ccccc1CNC(=O)c1ccc(Cn2nc(C)c(NC(=O)c3cc(C(F)(F)F)nc4ccc(Br)cc34)c2C)cc1 [Example 1183]	241 nM
Cc1nn(Cc2ccc(F)cc2)c(C)c1NC(=O)c1cc(Br)nc2ccccc12 [Example 36, 2-bromo-N-[1-(4-fluorobenzyl)-3,5-dimethyl-1H-pyrazol-4-yl]quinoline-4-carboxamide]	88.9 nM
COc1ccc(Cn2nc(C(F)(F)F)c(NC(=O)c3cc(C(N)=O)nc4cc(F)c(Cl)cc34)c2C)cc1 [Example 278, 6-chloro-7-fluoro-N^4-[1-(4-methoxybenzyl)-5-methyl-3-(trifluoromethyl)-1H-pyrazol-4-yl]quinoline-2,4-dicarboxamide]	1.4 nM
Cc1c(NC(=O)c2cc(C(N)=O)nc3cccc(F)c23)c(C(F)(F)F)nn1Cc1ccc(F)cc1C#N [Example 1656]	12.5 nM
Cc1cc(Cn2nc(C)c(NC(=O)c3cc(C(N)=O)nc4ccccc34)c2C)on1 [Example 1560]	39.8 nM
Cc1cccc(Cn2nc(C(F)(F)F)c(NC(=O)c3cc(C(N)=O)nc4cc(F)ccc34)c2C)c1 [Example 1480]	10.5 nM
Cc1ccc2nc(C)cc(C(=O)Nc3c(C)nn(Cc4ccc(C(C)(C)C)cc4)c3C)c2c1 [Example 1290]	7110 nM
Cc1c(NC(=O)c2cc(C(N)=O)nc3cc(F)c(Cl)cc23)c(C(F)(F)F)nn1Cc1cc(C#N)no1 [Example 1673]	56.1 nM
Cc1nn(Cc2ccn(C)n2)c(C)c1NC(=O)c1cc(C(N)=O)nc2ccccc12 [Example 1569]	67.5 nM
Cc1nn(Cc2ccc(Cl)s2)c(C)c1NC(=O)c1cc(C(F)(F)F)nc2ccc(Br)cc12 [Example 180, 6-bromo-N-{1-[(5-chlorothiophen-2-yl)methyl]-3,5-dimethyl-1H-pyrazol-4-yl}-2-(trifluoromethyl)quinoline-4-carboxamide]	93.7 nM
Cc1c(NC(=O)c2cc(C(N)=O)nc3cc(F)ccc23)c(C(F)(F)F)nn1Cc1cc(F)ccc1C#N [Example 1653]	266 nM
Cc1ccc2nc(C)cc(C(=O)Nc3c(C)nn(Cc4ccc(F)c(Cl)c4)c3C)c2c1 [Example 186, N-[1-(3-chloro-4-fluorobenzyl)-3,5-dimethyl-1H-pyrazol-4-yl]-2,6-dimethylquinoline-4-carboxamide]	126 nM
Cc1nn(Cc2ccc(C(=O)Nc3ccc(N(C)C)cc3)cc2)c(C)c1NC(=O)c1cc(C(F)(F)F)nc2ccc(Br)cc12 [Example 1069]	19.8 nM
Cc1nn(Cc2c(F)cccc2F)c(C)c1NC(=O)c1cc(C(N)=O)nc2cccc(F)c12 [Example 1633]	4.6 nM
Cc1nn(Cc2ccc(CC#N)cc2)c(C)c1NC(=O)c1cc(C(N)=O)nc2cc(F)ccc12 [Example 1613]	0.7 nM
Cc1nn(CC2CCN(S(=O)(=O)C(C)C)CC2)c(C)c1NC(=O)c1cc(C(N)=O)nc2ccccc12 [Example 1517]	98.7 nM

Compound	IC50
CC(=O)c1cccc(Cn2nc(C)c(NC(=O)c3cc(C(N)=O)nc4ccccc34)c2C)c1 [Example 1626]	107 nM
Cc1nn(Cc2ccc(C(=O)NC(CO)CO)cc2)c(C)c1NC(=O)c1cc(C(F)(F)F)nc2ccc(Br)cc12 [Example 1122]	67.3 nM
Cc1nn(Cc2ccc(C(F)(F)F)cc2)c(C)c1NC(=O)c1cc(C(F)(F)F)nc2ccc(Br)cc12 [Example 1302]	11100 nM
COc1ccc(Cn2nc(C)c(NC(=O)c3cc(C(N)=O)nc4ccccc34)c2C)cc1F [Example 238, N^4-[1-(3-fluoro-4-methoxybenzyl)-3,5-dimethyl-1H-pyrazol-4-yl]quinoline-2,4-dicarboxamide]	1.1 nM
Cc1c(NC(=O)c2cc(C(N)=O)nc3cc(F)c(Cl)cc23)c(C(F)(F)F)nn1Cc1ccc(OC(F)(F)F)cc1 [Example 1468]	12.9 nM
COc1cc(C(=O)Nc2c(C)nn(C(C)c3ccccc3)c2C)c2ccccc2n1 (racemic) [Example 1361]	36.9 nM
Cc1nn(Cc2ccc(F)cc2)c(C)c1NC(=O)c1cc(C(F)(F)F)nc2ccc(C(F)(F)F)cc12 [Example 98, N-[1-(4-fluorobenzyl)-3,5-dimethyl-1H-pyrazol-4-yl]-2,6-bis(trifluoromethyl)quinoline-4-carboxamide]	362 nM
Cc1nn(Cc2cccc(OC(F)(F)F)c2)c(C)c1NC(=O)c1cc(C(N)=O)nc2ccccc12 [Example 1585]	45.5 nM
Cc1c(NC(=O)c2cc(S(C)(=O)=O)nc3ccccc23)c(C(F)(F)F)nn1Cc1ccc(C#N)cc1 [Example 384, N-[1-(4-cyanobenzyl)-5-methyl-3-(trifluoromethyl)-1H-pyrazol-4-yl]-2-(methylsulfonyl)quinoline-4-carboxamide]	3.6 nM
Cc1c(NC(=O)c2cc(C(F)(F)F)nc3ccc(Br)cc23)c(C(F)(F)F)nn1Cc1ccc(C(=O)N(C)C)cn1 [Example 1194]	363 nM
CC(C)c1c(NC(=O)c2cc(C(N)=O)nc3ccccc23)c(C(F)(F)F)nn1Cc1ccc(C#N)cc1 [Example 317, N^4-[1-(4-cyanobenzyl)-5-isopropyl-3-(trifluoromethyl)-1H-pyrazol-4-yl]quinoline-2,4-dicarboxamide]	1050 nM
Cc1nn(Cc2ccc(C(=O)NCCO)cn2)c(C)c1NC(=O)c1cc(C(F)(F)F)nc2ccc(Br)cc12 [Example 1093]	38.4 nM
Cc1nn(Cc2ccc(C#N)cc2)c(C)c1NC(=O)c1cc(C(F)(F)F)nc2ccc(-c3c(C)noc3C)cc12 [Example 1198]	390 nM
Cc1nn(Cc2ccc(C(=O)N3CCCC3)cc2)c(C)c1NC(=O)c1cc(C(F)(F)F)nc2ccc(Br)cc12 [Example 1033]	4.2 nM
Cc1nn(Cc2c(F)cc(C#N)cc2F)c(C)c1NC(=O)c1cc(C(N)=O)nc2cccc(F)c12 [Example 393, N^4-[1-(4-cyano-2,6-difluorobenzyl)-3,5-dimethyl-1H-pyrazol-4-yl]-5-fluoroquinoline-2,4-dicarboxamide]	4.1 nM
Cc1c(NC(=O)c2cc(C(=O)NCCN3CCOCC3)nc3cc(F)ccc23)c(C(F)(F)F)nn1Cc1ccc(C#N)cc1 [Example 342, N^4-[1-(4-cyanobenzyl)-5-methyl-3-(trifluoromethyl)-1H-pyrazol-4-yl]-7-fluoro-N^2-[2-(morpholin-4-yl)ethyl]quinoline-2,4-dicarboxamide]	336 nM
Cc1c(NC(=O)c2cc(C(N)=O)nc3cccc(O)c23)c(C(F)(F)F)nn1Cc1ccc(C#N)cc1 [Example 1565]	21 nM
Cc1nn(Cc2ccncc2C#N)c(C)c1NC(=O)c1cc(C(N)=O)nc2ccccc12 [Example 286, N^4-{1-[(3-cyanopyridin-4-yl)methyl]-3,5-dimethyl-1H-pyrazol-4-yl}quinoline-2,4-dicarboxamide]	35.6 nM
Cc1nn(Cc2cscn2)c(C)c1NC(=O)c1cc(C(F)(F)F)nc2ccc(Br)cc12 [Example 1351]	134 nM
Cc1nn(Cc2ccc(C(=O)NCC3CCOCC3)cc2)c(C)c1NC(=O)c1cc(C(F)(F)F)nc2ccc(Br)cc12 [Example 1193]	343 nM
COc1ccc(CCn2nc(C)c(NC(=O)c3cc(C(N)=O)nc4cc(F)c(Cl)cc34)c2C)cc1 [Example 1346]	10.6 nM
Cc1nn(Cc2nccn2C)c(C)c1NC(=O)c1cc(C(N)=O)nc2ccccc12 [Example 1523]	4140 nM
Cc1nn(Cc2ccc(F)c(F)c2)c(C)c1NC(=O)c1cc(C2CC2)nc2ccc(Cl)cc12 [Example 145, 6-chloro-2-cyclopropyl-N-[1-(3,4-difluorobenzyl)-3,5-dimethyl-1H-pyrazol-4-yl]quinoline-4-carboxamide]	6.1 nM
